# Tested on: S. gordonii biofilms
# Experiment: adapted spinning-disc rheometry analysis of biofilm detachment
# Assay type: cell-based, Streptococcus gordonii
# Conditions: for area under the curve (AUC) of the torque-angular velocity curves: whole analyzed range; for biofilm momentum coefficient (CB): 200-300 rad·s^−1, vs untreated
# Experimental: Spinning-disc rheology was adapted to analyze biofilm detachment from surfaces. S. gordonii biofilms were grown on 3D printed coupons for 5 days. The model for the coupons was designed in SolidWorks (Dassault Systèmes). Coupons were 3D printed using a Prime 30 PolyJet 3D printer (Objet, Stratasys) using RGD720 photopolymer for the printing material (Stratasys). The coupon was printed at a resolution of 0.0008 inches. The coupon surface was sanded used P300 sandpaper to create a rougher surface for bacteria to attach. Prior to inoculating, coupons were sterilized in 70% ethanol.
# S. gordonii wild type strain DL1 was used in this study. Overnight cultures were prepared by inoculating 10 mL of brain heart infusion broth (Oxoid; BHI) with a colony of S. gordonii and incubated statically overnight at 37° C. with 5% CO2. Sterile 40 mm coupons were placed in a Petri dish containing 40 mL BHI, supplemented with 0.5% sucrose. Coupons were inoculated with 400 μL of overnight culture. Biofilms were incubated in a humidified chamber at 37° C. with 5% CO2, on an orbital shaker at 150 rpm. Every 24 h the media was replenished. […]
# Biofilms were analyzed on a Discovery Hybrid Rheometer-2 (HD-2) (TA Instruments). A 15×15 cm square clear acrylic container filled with 2.8 L reverse osmosis water was transferred onto the Peltier plate. Biofilm-coated coupons were immersed and attached to the rheometer shaft using a custom-made adapter probe. The gap distance between the bottom of the container and the coupon was set to 3.5 cm (FIG. 1). Immersed coupons were spun at an angular velocity (ω) range of 0.1-300 rad·s^−1, incrementing the speed over 360 seconds, and the resulting torque (T), a measurement of resistance to rotation, was measured across this velocity range.
# Data was collected using TRIOS v5 software (TA instruments), with raw data exported in excel. Data was transformed, and calculations performed in excel. Data was visualized and statistical analysis performed in GraphPad Prism v8 (GraphPad Software). All statistical comparisons were performed using a Student's t-test, with p<0.05 indicating significance.
# To more easily observe the changes in torque associated with biofilm detachment, the torque-angular velocity data was linearized and transformed. The data was linearized by taking the square root of the torque. The running slope of 5 data points of the linearized data was determined. […] Therefore, final transformed data is presented as the running slope of the linearized data against angular velocity, starting at 20 rad·s^−1.
# Five day S. gordonii biofilms were treated with either PBS (untreated control) or 4% arginine for 2 min. […] After treatment, Biofilms were analyzed on a Discovery Hybrid Rheometer-2 (HD-2) (TA Instruments) as described above. Four biological replicates were analyzed, each with 2-4 technical replicates (total N=11).
# To quantify the mechanical differences between arginine treated and untreated S. gordonii biofilms, the biofilm momentum coefficient (CB) across the turbulent regimes of 200-300 rad·s^−1 was determined according to equation 1: […]
# To quantify these differences, the angular velocity where the first reduction in torque occurred was converted to the shear stress acting on the outer edge of the coupon, according to equation 3.
# Next, the biofilm disrupting effect of arginine was compared with that of glycine and lysine by the spinning-disc rheometry assay to determine if biofilm disrupting effect is a general property of amino acids, or specific to arginine.
# [1] = Seven day S. gordonii biofilms, 4% arginine or 0.23M glycine or lysine for 2 min, equation 3, vs untreated
# [2] = Seven day S. gordonii biofilms, 4% arginine or 0.23M glycine or lysine for 2 min, vs untreated
# [3] = 5 day S. gordonii biofilms, 4% arginine for 2 min, vs PBS untreated control
# [4] = 5 day S. gordonii biofilms, 4% arginine for 2 min, vs untreated
Compound,shear stress at the first reduction in torque (detachment shear stress) [1],area under the curve (AUC) of the torque-angular velocity curves [2],"torque across angular velocity range (5 day S. gordonii biofilms, 4% arginine for 2 min, 0.1-300 rad·s^−1, vs untreated)","biofilm momentum coefficient (CB) (5 day S. gordonii biofilms, 4% arginine for 2 min)","shear stress at the first reduction in torque (initiation of detachment) (5 day S. gordonii biofilms, 4% arginine for 2 min, equation 3, vs untreated)","angular velocity at which changes in torque associated with biofilm detachment events occurred (5 day S. gordonii biofilms, 4% arginine for 2 min, transformed analysis, vs untreated)",amount of remaining biofilm attached to the coupon after rheometry analysis [3],biofilm morphology (macroscopic) [3],changes in torque in transformed data (running slope of torque^1/2 vs angular velocity) [4],area under the curve (AUC) of the torque-angular velocity curves [4],"biofilm momentum coefficient (CB) (Seven day S. gordonii biofilms, 4% arginine or 0.23M glycine or lysine for 2 min)",torque (torque-displacement profile) [2]
"NCCCC[C@H](N)C(=O)O [lysine, reference compound]",no significant difference,no significant differences,–,–,–,–,–,–,–,–,–,–
N=C(N)NCCC[C@H](N)C(=O)O [arginine],significantly lower shear stresses,significantly reduced AUC,reduced torque,no statistical difference,significantly lower shear stresses,lower angular velocity ranges,did not appear to affect,did not appear to affect,greater changes in torque,significantly reduced AUC,significantly lower,reduced torque
"NCC(=O)O [glycine, reference compound]",no significant difference,no significant differences,–,–,–,–,–,–,–,–,–,–

# — US20240150809A1, “Method of Evaluating the Biofilm Detachment Efficacy of Compositions” (Colgate-Palmolive Company, priority 2021, published 2024)
